According to PubChem BioAssay AID192 (DTP/NCI, 2004):
Several values for one entry are separate records, joined by “and”; a condition that tells them apart may be missing. Equal values may be shown once. Toxic doses and inconclusive results are not listed. Rule for the calls: active = survival T/C of 150% or more; inactive = T/C below 125% in these data.

Tested on: BDF1 mice, B16 melanoma ip, median survival T/C
Assay: NCI In Vivo Anticancer Drug Screen. Data for tumor model B16 Melanoma (intraperitoneal) in B6D2F1 (BDF1) mice
Details: endpoint: median survival time, higher = longer survival
Method in brief: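 Compounds were tested in mice carrying transplantable tumors. Survival or tumor size was recorded, and each value is the treated-group measurement (T) divided by that of the vehicle-treated control group (C).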

[1] = dose: 6.25 mg/kg/injection, schedule: Q01DX009 (ip), vehicle: saline with Tween-80
[2] = dose: 12.5 mg/kg/injection, schedule: Q01DX009 (ip), vehicle: saline with Tween-80
[3] = dose: 25.0 mg/kg/injection, schedule: Q01DX009 (ip), vehicle: saline with Tween-80
[4] = dose: 25.0 mg/kg/injection, schedule: Q01DX009 (ip), vehicle: Klucel (hydroxypropylcellulose) (HPC)
[5] = dose: 50.0 mg/kg/injection, schedule: Q01DX009 (ip), vehicle: Klucel (hydroxypropylcellulose) (HPC)
[6] = dose: 50.0 mg/kg/injection, schedule: Q01DX009 (ip), vehicle: saline with Tween-80
[7] = dose: 100.0 mg/kg/injection, schedule: Q01DX009 (ip), vehicle: Klucel (hydroxypropylcellulose) (HPC)
[8] = dose: 200.0 mg/kg/injection, schedule: Q01DX009 (ip), vehicle: Klucel (hydroxypropylcellulose) (HPC)
[9] = dose: 6.25 mg/kg/injection, schedule: Q01DX009 (ip), vehicle: Klucel (hydroxypropylcellulose) (HPC)
[10] = dose: 12.5 mg/kg/injection, schedule: Q01DX009 (ip), vehicle: Klucel (hydroxypropylcellulose) (HPC)
[11] = dose: 400.0 mg/kg/injection, schedule: Q01DX009 (ip), vehicle: Klucel (hydroxypropylcellulose) (HPC)

Measured: T/C

COc1c2c(cc3c1OCO3)CCN(C)C2
inactive: dose: 10.0 mg/kg/injection, schedule: Q01DX009 (ip), vehicle: saline 95 % of control | dose: 20.0 mg/kg/injection, schedule: Q01DX009 (ip), vehicle: saline 99 % of control | dose: 40.0 mg/kg/injection, schedule: Q01DX009 (ip), vehicle: saline 100 % of control | dose: 80.0 mg/kg/injection, schedule: Q01DX009 (ip), vehicle: saline 91 % of control

CCCCc1ccc2nc(NC(=O)OC)[nH]c2c1
inactive: [1] 106 % of control | [2] 112 % of control | [3] 115 % of control

ClC1CCC[N-]C1.ClC1CCC[N-]C1.[Cl][Pt+2]([Cl])([Cl])[Cl] (stereo not given)
inactive: dose: 0.78 mg/kg/injection, schedule: Q01DX009 (ip), vehicle: saline with Tween-80 105 % of control | dose: 1.56 mg/kg/injection, schedule: Q01DX009 (ip), vehicle: saline with Tween-80 100 % of control | dose: 3.13 mg/kg/injection, schedule: Q01DX009 (ip), vehicle: saline with Tween-80 97 % of control | [1] 106 % of control

ClC1C(Cl)C(Cl)C(Cl)C(Cl)C1Cl (stereo not given)
inactive: [4] 95 % of control | [3] 100 % of control | [5] 105 % of control | [6] 99 % of control | [7] 93 % of control | [8] 93 % of control | dose: 200.0 mg/kg/injection, schedule: Q01DX009 (ip), vehicle: saline with Tween-80 96 % of control | dose: 400.0 mg/kg/injection, schedule: Q01DX009 (ip), vehicle: saline with Tween-80 89 % of control

C1OCN2CSCC12 (stereo not given)
inactive: [2] 108 % of control | [3] 109 % of control | [6] 101 % of control | dose: 100.0 mg/kg/injection, schedule: Q01DX009 (ip), vehicle: saline with Tween-80 106 % of control

O=C1C2(Cl)C3(Cl)C4(Cl)C(Cl)(Cl)C5(Cl)[C@]3(Cl)C1(Cl)[C@]5(Cl)C24Cl (stereo not given in full)
inactive: dose: 3.12 mg/kg/injection, schedule: Q01DX009 (ip), vehicle: Klucel (hydroxypropylcellulose) (HPC) 97 % of control | [9] 105 % of control | [1] 102 % of control | [10] 98 % of control | [2] 106 % of control | [4] 110 % of control

COc1cc([C@@H]2c3cc4c(cc3[C@H](O)[C@H]3COC(=O)[C@@H]23)OCO4)cc(OC)c1OC
inactive: dose: 6.0 mg/kg/injection, schedule: Q01DX009 (ip), vehicle: Klucel (hydroxypropylcellulose) (HPC) 105 % of control | dose: 12.0 mg/kg/injection, schedule: Q01DX009 (ip), vehicle: Klucel (hydroxypropylcellulose) (HPC) 113 % of control | dose: 24.0 mg/kg/injection, schedule: Q01DX009 (ip), vehicle: Klucel (hydroxypropylcellulose) (HPC) 113 % of control

O=C(O)Cc1c(O)ccc2ccccc12
inactive: dose: 25.0 mg/kg/injection, schedule: Q04DX003 (ip), vehicle: gum acacia 100 % of control | dose: 50.0 mg/kg/injection, schedule: Q04DX003 (ip), vehicle: gum acacia 100 % of control | dose: 100.0 mg/kg/injection, schedule: Q04DX003 (ip), vehicle: gum acacia 97 % of control

C[CH2][Pb]([CH2]C)([CH2]C)[O]C(=O)COC
inactive: dose: 1.56 mg/kg/injection, schedule: Q01DX009 (ip), vehicle: Klucel (hydroxypropylcellulose) (HPC) 96 % of control | dose: 3.13 mg/kg/injection, schedule: Q01DX009 (ip), vehicle: Klucel (hydroxypropylcellulose) (HPC) 105 % of control

O=c1[nH]/c(=C\c2ccc3c(c2)OCO3)c(=O)[nH]/c1=C\c1ccc2c(c1)OCO2
inactive: dose: 12.5 mg/kg/injection, schedule: Q01DX009 (ip), vehicle: carboxymethylcellulose (CMC) 113 % of control | dose: 25.0 mg/kg/injection, schedule: Q01DX009 (ip), vehicle: carboxymethylcellulose (CMC) 100 % of control | dose: 50.0 mg/kg/injection, schedule: Q01DX009 (ip), vehicle: carboxymethylcellulose (CMC) 106 % of control | [7] 86 % of control

CCOc1c(Br)cc(Br)cc1C=C(C#N)C#N
inactive: dose: 12.5 mg/kg/injection, schedule: Q01DX009 (ip), vehicle: other 103 % of control | dose: 25.0 mg/kg/injection, schedule: Q01DX009 (ip), vehicle: other 98 % of control | dose: 50.0 mg/kg/injection, schedule: Q01DX009 (ip), vehicle: other 109 % of control

COc1ccc(C2CCc3cc4c(cc3/C2=N/OC(C)=O)OCO4)cc1OC (stereo not given)
inactive: [7] 109 % of control | [8] 110 % of control | [11] 105 % of control

COc1cc2c(cc1OC)C(C#N)C2 (stereo not given)
inactive: [9] 105 % of control | [10] 97 % of control and 102 % of control | [4] 111 % of control

O=C(O)[C@@H]1[C@H](C(=O)O)[C@H](C(=O)O)C[C@@H]1C(=O)O
inactive: dose: 100.0 mg/kg/injection, schedule: Q01DX009 (ip), vehicle: saline 102 % of control | dose: 200.0 mg/kg/injection, schedule: Q01DX009 (ip), vehicle: saline 94 % of control | dose: 400.0 mg/kg/injection, schedule: Q01DX009 (ip), vehicle: saline 96 % of control

CCO/C=C1\SC(=S)N(c2cccc(OC)c2)C1=O
inactive: [10] 93 % of control and 98 % of control | [4] 98 % of control and 107 % of control | dose: 35.0 mg/kg/injection, schedule: Q01DX009 (ip), vehicle: saline 98 % of control | [5] 98 % of control | dose: 50.0 mg/kg/injection, schedule: Q01DX009 (ip), vehicle: saline 100 % of control | dose: 75.0 mg/kg/injection, schedule: Q01DX009 (ip), vehicle: saline 91 % of control | [7] 100 % of control and 102 % of control | dose: 265.0 mg/kg/injection, schedule: Q04DX003 (ip), vehicle: Klucel (hydroxypropylcellulose) (HPC) 101 % of control | dose: 400.0 mg/kg/injection, schedule: Q04DX003 (ip), vehicle: Klucel (hydroxypropylcellulose) (HPC) 97 % of control

COc1cc(C2N(c3ccccc3)CCN2c2ccccc2)cc(OC)c1OC
inactive: [7] 106 % of control | [8] 103 % of control | [11] 96 % of control
